Assay results published in paper PMC11995216, “End-to-End Backbone Cyclization Enhances Passive Permeability of bRo5 Oligomeric Depsipeptides with Nonlinear Size Dependence” (ACS Medicinal Chemistry Letters, 2025).
Several values for one entry are separate records, joined by “and”; a condition that tells them apart may be missing. Equal values may be shown once. Read-outs that look alike come from different tables or passages of the source. Starred links: 1 amine or outer side, 2 acyl side, 3 side chain; linkers in the order of their positions; H or OH if unused. Non-standard residues stand in square brackets, D forms with d. Residues, ends and D or L forms follow the SMILES beside them. *: point of attachment. X1 = CCCCC[C@H](O[*:1])C(=O)[*:2]; Ahp(2) = CCCCC[C@H](N)C(=O)O; dNMeA = CN[C@H](C)C(=O)O; Boc = CC(C)(C)OC(=O)*; OBn = c1ccc(CO*)cc1

How the values were obtained:
PAMPA [1] = details: UV detection
[2] = initial concentration 500 uM, UV detection
PAMPA [3] = details: UV detection, initial concentration 500 uM
[4] = UV detection
[5] = PAMPA
[6] = PAMPA; remark: listed apart in the source
[7] = calculated using Supplement Equation 1, UV detection

CCCCC[C@H](NC(=O)[C@@H](C)N(C)C(=O)[C@H](CCCCC)OC(=O)[C@@H](C)N(C)C(=O)[C@H](CCCCC)NC(=O)[C@@H](C)N(C)C(=O)[C@H](CCCCC)OC(=O)[C@@H](C)N(C)C(=O)OC(C)(C)C)C(=O)OCc1ccccc1 [Compound L2.3] (Boc-[dNMeA][X1][dNMeA][Ahp(2)][dNMeA][X1][dNMeA][Ahp(2)]-OBn) showed a Papp (PAMPA [1]; Papp (x 10^-6 cm/s) / [row 1]) of 3.76 ×10⁻⁶ cm/s, a Papp (PAMPA [1]; Papp (x 10^-6 cm/s) / [row 2]) of 3.12 ×10⁻⁶ cm/s and a Papp (PAMPA [1]; Papp (x 10^-6 cm/s) / [row 3]) of 3.36 ×10⁻⁶ cm/s. It also gave a Papp (PAMPA [1]; Papp (x 10^-6 cm/s) / [row 4]) of 3.52 ×10⁻⁶ cm/s, a Papp (PAMPA [1]; Papp (x 10^-6 cm/s) / [row 5]) of 3.88 ×10⁻⁶ cm/s and a Papp (PAMPA [1]; Papp (x 10^-6 cm/s) / [row 6]) of 3.19 ×10⁻⁶ cm/s. For the same compound, the Papp (PAMPA [1]; Papp (x 10^-6 cm/s) / [row 7]) was 3.05 ×10⁻⁶ cm/s, the Papp (PAMPA [1]; Papp (x 10^-6 cm/s) / [row 8]) was 2.93 ×10⁻⁶ cm/s and the Papp (PAMPA [1]; Papp (x 10^-6 cm/s) / [row 9]) was 3.14 ×10⁻⁶ cm/s. The Papp (PAMPA [1]; Papp (x 10^-6 cm/s) / [row 10]) was 3.2 ×10⁻⁶ cm/s, the donor concentration after incubation ([2]; Well 1 / [donor], Well 1) was 388 µM and 369 µM and the donor concentration after incubation ([2]; Well 2 / [donor], Well 2) was 382 µM and 380 µM. The donor concentration after incubation ([2]; Well 3 / [donor], Well 3) was 369 µM and 377 µM, the donor concentration after incubation ([2]; Well 4 / [donor], Well 4) was 380 µM and 370 µM and the donor concentration after incubation ([2]; Well 5 / [donor], Well 5) was 353 µM and 358 µM. For the same compound, the Acceptor Concentration (PAMPA [3]; Acceptor Concentration (uM) / [row 1]) was 89.6 µM, the Acceptor Concentration (PAMPA [3]; Acceptor Concentration (uM) / [row 2]) was 71.9 µM and the Acceptor Concentration (PAMPA [3]; Acceptor Concentration (uM) / [row 3]) was 75.1 µM. The Acceptor Concentration (PAMPA [3]; Acceptor Concentration (uM) / [row 4]) was 81.3 µM, the Acceptor Concentration (PAMPA [3]; Acceptor Concentration (uM) / [row 5]) was 83.9 µM and the Acceptor Concentration (PAMPA [3]; Acceptor Concentration (uM) / [row 6]) was 71.2 µM. The Acceptor Concentration (PAMPA [3]; Acceptor Concentration (uM) / [row 7]) was 69.7 µM, the Acceptor Concentration (PAMPA [3]; Acceptor Concentration (uM) / [row 8]) was 66.2 µM and the Acceptor Concentration (PAMPA [3]; Acceptor Concentration (uM) / [row 9]) was 69.9 µM. For the same compound, the Acceptor Concentration (PAMPA [3]; Acceptor Concentration (uM) / [row 10]) was 69 µM, the % recovery ([4]; Well 1 / %R, Well 1) was 96% and 88% and the % recovery ([4]; Well 2 / %R, Well 2) was 91% and 90%. The % recovery ([4]; Well 4 / %R, Well 4) was 92% and 88%, the % recovery ([4]; Well 5 / %R, Well 5) was 87% and 85% and the Papp [5] was 3.32 ± 0.31 ×10⁻⁶ cm/s. The LogPapp [6] was -5.48 ± 0.04, the Δ % diffusion [6] was “↑10%” and the %T ([7]; Well 1 / %T, Well 1) was 0.55% and 0.49%. The %T ([7]; Well 2 / %T, Well 2) was 0.56% and 0.52%, the %T ([7]; Well 3 / %T, Well 3) was 0.52% and 0.55% and the %T ([7]; Well 4 / %T, Well 4) was 0.5% and 0.53%. The %T ([7]; Well 5 / %T, Well 5) was 0.54% and 0.53%.
